Assay results: US4147787A, “4,5,6,7-Tetrahydro-thieno[2,3-c]-and [3,2-c]-pyridines, and therapeutic compositions containing the same” (Parcor, priority 1977, dated 1979)

How the values were obtained:
[1] = tested on: rat globules (red corpuscles); experiment: In vitro anti-sludge activity, curative procedure (protamine sulfate); assay type: cell-based; settings: 25 μg
Procedure: (§1) Said activity was investigated in vitro and in vivo in rats.
(§2) Thrice washed rat globules are diluted to 1/250 in physiological saline. In each of 5 tubes are placed 0.6 ml of this suspension and 0.2 ml physiological saline. To each tube is then added 0-25-50-100 and 200 μg, respectively, of the test derivative contained in 0.2 ml solution. After incubation for one hour at 37° C., 0.2 ml of a solution containing 125 μg/ml protamine sulfate are added, after which the tube is then incubated again for 0.5 hour at 37° C. The globules of each tube are then examined with a Mallases cell, and the percent free globules and the percent aggregates formed by 2, 3, 4, 5 etc.. globules is then recorded.
The experiment was repeated according to a "curvative" procedure; the red corpuscles were first contacted with protamine sulfate and, after incubation for 0.5 hour, 0.2 ml containing 25 μg of test derivative were added thereto, which operation is followed by another incubation for one hour at 37° C. The results obtained are reported in Table III, in which the percent agglomerates as a function of size is indicated.

[2] = tested on: Collagen-induced blood-platelet aggregation; experiment: Collagen-induced blood-platelet aggregation; assay type: in vivo, Wistar rats; settings: Rattus norvegicus, po; 100 mg/kg orally, rats, 3 hours after treatment; read-out: Percent inhibition of blood-platelet aggregation, Collagen
Procedure: (§3) A blood sample is taken from the jugular vein of Wistar rats. From this citrated blood and after centifugation, a plasma is reconstituted which contains 600,000 ± 20,000 blood-platelets per ml, which plasma is then used in all aggregation determinations.
(§4) 0.4 ml plasma is placed in a siliconized tube provided with a magnet bar, also siliconized. The tube is introduced into an aggregometer connected to an apparatus which records optical density variations. When light transmission has attained a stable value, 0.5 ml of a solution containing 10 μM A.D.P. (adenosinediphosphate) is added to the tube.
(§5) Blood-platelet aggregation induces an increase of light transmission, followed by a decrease subsequent to the deaggregation phase.
The A.D.P. solution is substituted with a collagen (bovine tendon extract) solution.
(§6) Different groups of 20 rats each are used, each group being orally administered 100 mg/kg of a test derivative.

[3] = tested on: A.D.P. induced blood-platelet aggregation; experiment: A.D.P. induced blood-platelet aggregation; assay type: in vivo, Wistar rats; settings: Rattus norvegicus, po; 100 mg/kg orally, rats, 3 hours after treatment, 10 μM A.D.P. solution; read-out: Percent inhibition of blood-platelet aggregation, A.D.P.
Procedure: as §3, §4, §5, §6

[4] = tested on: rat globules (red corpuscles); experiment: In vitro anti-sludge activity, preventive treatment (protamine sulfate); assay type: cell-based
Procedure: as §1, §2

[5] = Acute toxicity (LD50, method according to Miller and Tainter); settings: mouse, in vivo, mice, intravenous, read-out: LD50 /24h/kg body weight

COC(=O)C1Cc2sc(Cl)cc2CN1 (stereo not drawn) [Example 29]
percent agglomerates, size 2 [1]: 9%
percent agglomerates, size 3 [1]: 2%
percent agglomerates, size 4 [1]: 1%
percent agglomerates, size 5 [1]: 0%
percent agglomerates, size 6 [1]: 0%
percent agglomerates, size 7 [1]: 0%
percent agglomerates, size 8 [1]: 0%
percent agglomerates, size 9 [1]: 0%
percent agglomerates, size 10 [1]: 0%
percent free red corpuscles (size of agglomerates 1) [1]: 87%
inhibition at 100 mg/kg [2]: 92.7%
inhibition at 100 mg/kg [3]: 62.7%

O=C(OCc1ccccc1Cl)C1Cc2sccc2CN1Cc1ccccc1Cl (stereo not drawn) [Example 13, 5-o-Chlorobenzyl-6-o-chlorobenzyloxycarbonyl-4,5,6,7-tetrahydro-thieno[3,2-c]pyridine]
percent agglomerates, size 2 [1]: 9%
percent agglomerates, size 3 [1]: 5%
percent agglomerates, size 4 [1]: 0%
percent agglomerates, size 5 [1]: 0%
percent agglomerates, size 6 [1]: 0%
percent agglomerates, size 7 [1]: 0%
percent agglomerates, size 8 [1]: 0%
percent agglomerates, size 9 [1]: 0%
percent agglomerates, size 10 [1]: 0%
percent free red corpuscles (size of agglomerates 1) [1]: 86%
percent agglomerates, size 2 ([4]; 25 μg): 26%
percent agglomerates, size 3 ([4]; 25 μg): 9%
percent agglomerates, size 4 ([4]; 25 μg): 0%
percent agglomerates, size 5 ([4]; 25 μg): 0%
percent agglomerates, size 6 ([4]; 25 μg): 0%
percent agglomerates, size 7 ([4]; 25 μg): 0%
percent agglomerates, size 8 ([4]; 25 μg): 0%
percent agglomerates, size 9 ([4]; 25 μg): 0%
percent agglomerates, size 10 ([4]; 25 μg): 0%
percent agglomerates, size 11 ([4]; 25 μg): 0%
percent agglomerates, size 12 ([4]; 25 μg): 0%
percent agglomerates, size 13 ([4]; 25 μg): 0%
percent free red corpuscles (size of agglomerates 1) ([4]; 25 μg): 65%
percent agglomerates, size 2 ([4]; 50 μg): 23%
percent agglomerates, size 3 ([4]; 50 μg): 5%
percent agglomerates, size 4 ([4]; 50 μg): 4%
percent agglomerates, size 5 ([4]; 50 μg): 0%
percent agglomerates, size 6 ([4]; 50 μg): 0%
percent agglomerates, size 7 ([4]; 50 μg): 0%
percent agglomerates, size 8 ([4]; 50 μg): 0%
percent agglomerates, size 9 ([4]; 50 μg): 0%
percent agglomerates, size 10 ([4]; 50 μg): 0%
percent agglomerates, size 11 ([4]; 50 μg): 0%
percent agglomerates, size 12 ([4]; 50 μg): 0%
percent agglomerates, size 13 ([4]; 50 μg): 0%
percent free red corpuscles (size of agglomerates 1) ([4]; 50 μg): 68%
percent agglomerates, size 2 ([4]; 100 μg): 8%
percent agglomerates, size 3 ([4]; 100 μg): 3%
percent agglomerates, size 4 ([4]; 100 μg): 2%
percent agglomerates, size 5 ([4]; 100 μg): 0%
percent agglomerates, size 6 ([4]; 100 μg): 0%
percent agglomerates, size 7 ([4]; 100 μg): 0%
percent agglomerates, size 8 ([4]; 100 μg): 0%
percent agglomerates, size 9 ([4]; 100 μg): 0%
percent agglomerates, size 10 ([4]; 100 μg): 0%
percent agglomerates, size 11 ([4]; 100 μg): 0%
percent agglomerates, size 12 ([4]; 100 μg): 0%
percent agglomerates, size 13 ([4]; 100 μg): 0%
percent free red corpuscles (size of agglomerates 1) ([4]; 100 μg): 87%
percent agglomerates, size 2 ([4]; 200 μg): 9%
percent agglomerates, size 3 ([4]; 200 μg): 1%
percent agglomerates, size 4 ([4]; 200 μg): 0%
percent agglomerates, size 5 ([4]; 200 μg): 0%
percent agglomerates, size 6 ([4]; 200 μg): 0%
percent agglomerates, size 7 ([4]; 200 μg): 0%
percent agglomerates, size 8 ([4]; 200 μg): 0%
percent agglomerates, size 9 ([4]; 200 μg): 0%
percent agglomerates, size 10 ([4]; 200 μg): 0%
percent agglomerates, size 11 ([4]; 200 μg): 0%
percent agglomerates, size 12 ([4]; 200 μg): 0%
percent agglomerates, size 13 ([4]; 200 μg): 0%
percent free red corpuscles (size of agglomerates 1) ([4]; 200 μg): 90%
inhibition at 100 mg/kg [2]: 96.1%
inhibition at 100 mg/kg [3]: 64.4%

O=C(O)C1Cc2sccc2CN1 (stereo not drawn) [Example 2, 6-Carboxy-4,5,6,7-tetrahydro-thieno[3,2-c]pyridine]
LD50 at 24 h [5]: 235 mg/kg

CN1Cc2ccsc2CC1C(=O)O (stereo not drawn) [Example 25, 5-Methyl-6-carboxy-4,5,6,7-tetrahydro-thieno[3,2-c]pyridine]
inhibition at 100 mg/kg [2]: 92.4%
LD50 at 24 h [5]: 325 mg/kg
inhibition at 100 mg/kg [3]: 61.6%

O=C(O)[C@@H]1NCc2sccc2[C@@H]1O (relative stereo) [Example 5, 5-Carboxy-4-hydroxy-4,5,6,7-tetrahydro-thieno[2,3-c]pyridine]
percent agglomerates, size 2 [1]: 11%
percent agglomerates, size 3 [1]: 3%
percent agglomerates, size 4 [1]: 0%
percent agglomerates, size 5 [1]: 0%
percent agglomerates, size 6 [1]: 0%
percent agglomerates, size 7 [1]: 0%
percent agglomerates, size 8 [1]: 0%
percent agglomerates, size 9 [1]: 0%
percent agglomerates, size 10 [1]: 0%
percent free red corpuscles (size of agglomerates 1) [1]: 86%
inhibition at 100 mg/kg [2]: 90.5%
inhibition at 100 mg/kg [3]: 62.3%

O=C(O)[C@@H]1NCc2ccsc2[C@@H]1O (relative stereo) [Example 1, 6-Carboxy-7-hydroxy-4,5,6,7-tetrahydro-thieno[3,2-c]pyridine]
percent agglomerates, size 2 ([4]; 25 μg): 25%
percent agglomerates, size 3 ([4]; 25 μg): 11%
percent agglomerates, size 4 ([4]; 25 μg): 0%
percent agglomerates, size 5 ([4]; 25 μg): 0%
percent agglomerates, size 6 ([4]; 25 μg): 0%
percent agglomerates, size 7 ([4]; 25 μg): 0%
percent agglomerates, size 8 ([4]; 25 μg): 0%
percent agglomerates, size 9 ([4]; 25 μg): 0%
percent agglomerates, size 10 ([4]; 25 μg): 0%
percent agglomerates, size 11 ([4]; 25 μg): 0%
percent agglomerates, size 12 ([4]; 25 μg): 0%
percent agglomerates, size 13 ([4]; 25 μg): 0%
percent free red corpuscles (size of agglomerates 1) ([4]; 25 μg): 64%
percent agglomerates, size 2 ([4]; 50 μg): 24%
percent agglomerates, size 3 ([4]; 50 μg): 5%
percent agglomerates, size 4 ([4]; 50 μg): 2%
percent agglomerates, size 5 ([4]; 50 μg): 0%
percent agglomerates, size 6 ([4]; 50 μg): 0%
percent agglomerates, size 7 ([4]; 50 μg): 0%
percent agglomerates, size 8 ([4]; 50 μg): 0%
percent agglomerates, size 9 ([4]; 50 μg): 0%
percent agglomerates, size 10 ([4]; 50 μg): 0%
percent agglomerates, size 11 ([4]; 50 μg): 0%
percent agglomerates, size 12 ([4]; 50 μg): 0%
percent agglomerates, size 13 ([4]; 50 μg): 0%
percent free red corpuscles (size of agglomerates 1) ([4]; 50 μg): 69%
percent agglomerates, size 2 ([4]; 100 μg): 7%
percent agglomerates, size 3 ([4]; 100 μg): 4%
percent agglomerates, size 4 ([4]; 100 μg): 3%
percent agglomerates, size 5 ([4]; 100 μg): 0%
percent agglomerates, size 6 ([4]; 100 μg): 0%
percent agglomerates, size 7 ([4]; 100 μg): 0%
percent agglomerates, size 8 ([4]; 100 μg): 0%
percent agglomerates, size 9 ([4]; 100 μg): 0%
percent agglomerates, size 10 ([4]; 100 μg): 0%
percent agglomerates, size 11 ([4]; 100 μg): 0%
percent agglomerates, size 12 ([4]; 100 μg): 0%
percent agglomerates, size 13 ([4]; 100 μg): 0%
percent free red corpuscles (size of agglomerates 1) ([4]; 100 μg): 86%
percent agglomerates, size 2 ([4]; 200 μg): 9%
percent agglomerates, size 3 ([4]; 200 μg): 2%
percent agglomerates, size 4 ([4]; 200 μg): 0%
percent agglomerates, size 5 ([4]; 200 μg): 0%
percent agglomerates, size 6 ([4]; 200 μg): 0%
percent agglomerates, size 7 ([4]; 200 μg): 0%
percent agglomerates, size 8 ([4]; 200 μg): 0%
percent agglomerates, size 9 ([4]; 200 μg): 0%
percent agglomerates, size 10 ([4]; 200 μg): 0%
percent agglomerates, size 11 ([4]; 200 μg): 0%
percent agglomerates, size 12 ([4]; 200 μg): 0%
percent agglomerates, size 13 ([4]; 200 μg): 0%
percent free red corpuscles (size of agglomerates 1) ([4]; 200 μg): 89%
inhibition at 100 mg/kg [2]: 95.8%
LD50 at 24 h [5]: 118 mg/kg
inhibition at 100 mg/kg [3]: 63.8%
